Reference: publication PMC9655001, “Isolation and Identification of Antioxidative Peptide from Goose Liver Hydrolysate to Ameliorate Alcohol-Mediated Oxidative Stress Damage in HHL-5 Hepatocytes” (Molecules, 2022)
Read-outs that look alike come from different tables or passages of the source. Marks after values point to notes of the source that are not given here. Ends that are not written are not given here. Peptide text beside a SMILES is read from it.

Legend:
[1] = DPPH radical scavenging activity; details: 1 mg/mL, 0.2 mmol/L DPPH, 30 min room temperature, absorbance 517 nm, mean ± SD
Experimental: (§1) The antioxidant activity of the target peptides was evaluated by detecting the hydroxyl radical scavenging activity (∙OH), DPPH radical scavenging activity, and Fe^2+ chelating ability; the method was performed according to Zhu et al. with some modifications.
Measurement of the DPPH radical scavenging activity. One mL of the LPLPFP (dissolved in deionized water) was mixed with 1 mL of 0.2 mmol/L DPPH (in 95% ethanol) as the sample group; 1 mL of deionized water was mixed with 1 mL of ethanol (95%) as the blank group; and 1 mL of 0.2 mmol/L DPPH was mixed with 1 mL of ethanol (95%) as the control group. The mixture was agitated using a vortex and incubated for 30 min at room temperature, protected from light, and then the absorbance at 517 nm was measured. The scavenging activity of LPLPFP and BHT was calculated using the following equation:DPPH radical scavenging activity (%) = 1 − [ (As − Ac) ÷ (Ab − Ac)] × 100% where As, Ac, and Ab represent the absorbance of the sample, the control, and the blank groups, respectively. BHT was used as a positive control.

[2] = ∙OH radical scavenging activity; details: 1 mg/mL, 37 °C 60 min, absorbance 536 nm, mean ± SD
Experimental: as §1
Measurement of the ∙OH radical scavenging activity. The sample group was a mixture of 0.6 mL of 1, 10-phenanthroline monohydrate (5 mmol/L) and 0.4 mL of phosphate buffer (0.2 M, pH 7.4), and then 0.6 mL of LPLPFP (1 mg/mL), 0.6 mL of EDTA (15 mmol/L), and 0.6 mL of FeSO4 (5 mmol/L) were mixed thoroughly. After mixing, 0.8 mL of H2O2 (0.1%) was added and incubated at 37 °C for 60 min. Afterward, the mixture absorbance was measured at 536 nm with the multifunctional microplate reader. The control group contained the same solutions as the sample group, except deionized water was used instead of the sample. The blank group contained the same solution as the control group, except deionized water was used instead of H2O2. The results were determined according to the equation. hydroxyl radical scavenging activity (%) = (As − Ac) ÷ (Ab − Ac) × 100% where As, Ac, and Ab represent the absorbance of the sample and the control and blank groups, respectively. BHT was used as a positive control.

Fe^2+ chelating ability = details: 1 mg/mL, ferrozine, 10 min room temperature, absorbance 562 nm, mean ± SD
Experimental: as §1
Measurement of the Fe^2+ chelating ability. Briefly, 1 mL of LPLPFP was mixed with 0.05 mL of FeCl2 (2 mmol/L) and 0.2 mL of ferrozine (5 mmol/L). The mixture was vortexed and kept at room temperature for 10 min prior to the measurement of the absorbance at 562 nm (As). The control (Ac) contained everything except using deionized water instead of LPLPFP. The chelating ability was calculated according to the equation Fe^2+chelating ability (%) = (Ac − As) ÷ Ac × 100% where As and Ac represent the absorbance of the sample and the control groups. BHT was used as a positive control.

[3] = cited from earlier work
Text: Typically, oligopeptides containing 2 to 10 amino acid residues are considered to have a higher antioxidant activity compared with their parent protein [14]. Free radicals, linked to oxidative stress, are highly reactive with other molecules, including vital DNA and proteins, the destruction of which can damage or kill cells. Among the many free radicals, the ∙OH radical is commonly considered as one of the most harmful highly react ...

HHL-5 hepatocytes [4] = assay: Cell viability by Cell Counting Kit-8
Experimental: Furthermore, HHL-5 hepatocytes were cultured with different concentrations of GLHP (100 μg/mL, 200 μg/mL, 300 μg/mL, 400 μg/mL, and 500 μg/mL) to evaluate the cytotoxicity of GLHP, as described above. The ability of GLHP to protect HHL-5 hepatocytes was evaluated. […] In the CTRL group, a culture medium supplemented with an equal volume of the PBS was added and incubated for 12 h, and the culture medium was then substituted with an equal volume of the PBS and incubated for 48 h. Finally, the culture media and cells were collected for further analysis.
The Cell Counting Kit-8 (CCK-8, Beijing Solarbio Science and Technology Co., Ltd., Beijing, China) was used to assess the HH-5 cell viability; the testing procedures were performed according to the manufacturer’s protocol. Adherent cells in 96-well culture plates were treated and then incubated with a CCK solution for 2 h; the absorbance was detected at a wavelength of 450 nm with the multifunctional microplate reader.

HHL-5 hepatocytes [5] = assay: AST level in model of alcohol-mediated HHL-5 hepatocytes damage; assay type: cell-based, human; details: alcohol 500 mmol/L, 48 h, no peptide pre-treatment (model group)
Experimental: (§2) Cells were collected with PBS, the activity of ALT (C009-2-1), AST (C0010-2-1), and MDA (A003-1) in cell supernatant and the SOD (A001-3), GSH-Px (A005), CAT (A007-1-1), and ROS (E004-1-1) in the cells were measured using corresponding assay kits (Nanjing Jiancheng Biotechnology Institute, Nanjing, China) according to the manufacturer’s instructions.
ALT and AST: 5 μL of sample was mixed with 20μL of ALT/AST matrix solution and the reaction was performed at 37 °C for 30 min. Then, 20 μL of 2, 4-dinitrophenylhydrazine solution was added and the reaction was performed at 37 °C for 20 min. Finally, 200 μL of sodium hydroxide solution (0.4 mol/L) was added and the reaction was performed at room temperature for 15 min. The absorbance value was measured at a 510 nm wavelength by a multifunctional microplate reader.

HHL-5 hepatocytes [6] = assay: MDA level in model of alcohol-mediated HHL-5 hepatocytes damage; assay type: cell-based, human; details: alcohol 500 mmol/L, 48 h, no peptide pre-treatment (model group)
Experimental: as §2
MDA: 0.1 mL of sample was mixed with 0.1 mL of reagent one, 3 mL of reagent two, and 1 mL of reagent three in the 10 mL centrifuge tube. Then, the centrifuge tube was centrifuged at 4 °C, 3500× g for 10 min after being heated in a boiling water bath for 40 min. The absorbance value of 200 μL of the supernatant was measured at a 532 nm wavelength by a multifunctional microplate reader.

HHL-5 hepatocytes [7] = assay: ROS level in alcohol-mediated HHL-5 hepatocytes (DCFH-DA); assay type: cell-based, human; details: alcohol alone (EtOH model group)
Experimental: as §2
ROS: A DCFH-DA probe was added directly to the serum-free medium: DCFH-DA was generally diluted with a serum-free medium at a final concentration of 10 µM at 1:1000. After removing the culture medium, an appropriate volume of diluted DCFH-DA was added. The volume added should be sufficient to cover the cells. Usually, no less than 1 mL of diluted DCFH-DA is added to one well of a 6-well plate. A sample of cells without a probe and with a medium only was set as negative for the control. Positive control: take a sample of cells with a probe and add reactive oxygen species to induce the cells. The cells were incubated at 37 °C for 20 min […] (mixed upside down every 5 min to make full contact between the probe and cell). […] In general, an obvious green fluorescence can be observed in the positive control cells after 30 min of stimulation. […] It can also be detected according to FITC fluorescence detection conditions. The results were expressed as fluorescence values.

HHL-5 hepatocytes [8] = assay: H2O2 level in alcohol-mediated HHL-5 hepatocytes; assay type: cell-based, human; details: alcohol alone (EtOH model group)
Experimental: The cell suspension was inoculated into 96-well plates (4 × 10^3 per well) and added to the culture medium containing: DMEM-F12 (1:1, HyClone, Logan, UT, USA), 10% FBS (Gibco, New York, NY, USA), 1% P/S (100 U/L), 15 mmol/L of HEPES, and 2.5 mmol/L of L-glutamine, then the plates with cells were placed in a 5% CO2 humidified atmosphere at 37 °C for 24 h. […] Furthermore, HHL-5 hepatocytes were cultured with different concentrations of GLHP (100 μg/mL, 200 μg/mL, 300 μg/mL, 400 μg/mL, and 500 μg/mL) to evaluate the cytotoxicity of GLHP, as described above. The ability of GLHP to protect HHL-5 hepatocytes was evaluated. […] In the CTRL group, a culture medium supplemented with an equal volume of the PBS was added and incubated for 12 h, and the culture medium was then substituted with an equal volume of the PBS and incubated for 48 h. Finally, the culture media and cells were collected for further analysis.

HHL-5 hepatocytes [9] = assay: SOD activity in alcohol-mediated HHL-5 hepatocytes; assay type: cell-based, human; details: alcohol alone (EtOH model group)
Experimental: as §2
SOD: 20 μL of sample was mixed with 20 μL enzyme working liquid and 200 μL of substrate application solution. Then, miscible liquids were performed at 37 °C for 20 min. The absorbance values of the miscible liquids were measured at a 450 nm wavelength by a multifunctional microplate reader.

HHL-5 hepatocytes [10] = assay: GSH-Px activity in alcohol-mediated HHL-5 hepatocytes; assay type: cell-based, human; details: alcohol alone (EtOH model group)
Experimental: as §2
GSH-Px: 0.2 mL of sample was mixed with 0.2 mL of […] and performed at 37 °C for 5 min. Then, 0.1 mL of reagent one was added and performed at 37 °C for 5 min. Subsequently, the miscible liquids were centrifuged at 4 °C, 3500× g for 10 min. One mL of supernatant was mixed with 1 mL of reagent three, 0.25 mL of reagent four, and 0.05 mL of reagent five and performed at room temperature for 15 min. The absorbance value was measured at a 412 nm wavelength by a multifunctional microplate reader.

HHL-5 hepatocytes [11] = assay: CAT activity in alcohol-mediated HHL-5 hepatocytes; assay type: cell-based, human; details: alcohol alone (EtOH model group)
Experimental: as §2
CAT: 0.05 mL of sample was mixed with 1.0 mL reagent one, 0.1 mL reagent two and performed at 37 °C for 1 min. Then, 1.0 mL reagent three and 0.1 mL reagent four were mixed with the miscible liquids. The absorbance value was measured at 405 nm wavelength by a multifunctional microplate reader.

pepsin and trypsin = assay: Pepsin-trypsin simulated GI digestion stability; assay type: in vitro ADME; details: 400 μg/mL peptide; simulated gastric juice (pepsin, pH 3.0) 37 °C 2 h, then simulated intestinal fluid (trypsin, bile salt) 2 h; read-out: retained hepatoprotective activity (ALT, AST, MDA) in HHL-5 model
Experimental: The stability of LPLPFP in response to pepsin and trypsin in the simulation of GI digestion in vitro was examined based on Xie et al.. A 1 L ultrapure water solution containing 2 g of NaCl and 3.2 g of pepsin (3000 U/mg protein) with a pH of 3.0 (adjusted with a 6 mol/L HCl solution), was configured as simulated gastric juice. In addition, 0.68 g of potassium dihydrogen phosphate, 7.7 mL of 0.2 mol/L NaOH solution, 1 g of trypsin (285 U/mg protein), and 6 g of bile salt were added and dissolved in 70 mL of ultrapure water with a pH of 7.6 (adjusted with a 0.2 mol/L NaOH solution) and the volume was filled with ultrapure water up to 1 L (as simulated intestinal fluid). The 400 μg/mL of peptide solution at pH 3.0 (adjusted with a 1 mol/L HCl solution) and 5 mL of simulated gastric juice was mixed and shaken at 37 °C for 2 h to simulate gastric digestion, then the mixture was terminated by being heated at 100 °C for 10 min, the pH was adjusted to 7.2 with a 0.2 mol/L NaOH solution, and 5 mL of simulated intestinal juice was added to the solution, and the same conditions were used for simulating intestinal digestion. Finally, the digestive liquid was transferred to the ultrafiltration centrifuge tube (1 kDa) and centrifuged at 4 °C, 8500× g for 20 min; the filtered solutions were desalted by a polar enhanced polymer (PEP) column (500 mg/6 mL) and dried in a vacuum freeze-dryer.

Cc1cc(C(C)(C)C)c(O)c(C(C)(C)C)c1 [BHT]
DPPH Radical Scavenging Activity (%) [1]: 90.56 ± 1.73 ^b % | ∙OH Radical Scavenging Activity (%) [2]: 79.38 ± 2.03 ^b % | Fe^2+ Chelating Ability (%) (Fe^2+ chelating ability): 14.39 ± 2.46 ^b %

NPPKFD
Fe^2+ chelating ability (source: scavenging rate of Fe^2+) ([3]; 1 mg/mL ref 3): 66.92%

Gly-Lys-Phe-Asn-Val
Fe^2+ chelating ability (source: scavenging rate of Fe^2+) ([3]; 1 mg/mL ref 16): 63.20%

CCO [alcohol, anhydrous ethanol]
viability of HHL-5 hepatocytes (HHL-5 hepatocytes [4]; 500 mmol/L alcohol, 48 h, CCK-8, mean ± SD, at least triplicates): approximately 49.28 ± 5.12% | median lethal dose of alcohol for HHL-5 hepatocytes (LD50) (HHL-5 hepatocytes [4]; 48 h incubation, CCK-8): 500 mmol/L | level of AST in the EtOH group (HHL-5 hepatocytes [5]): 376.57 ± 32.83 U/L | level of MDA in the EtOH group (HHL-5 hepatocytes [6]): 2.436e+07 ± 2.85e+06 µM | level of ROS after stimulation with alcohol (HHL-5 hepatocytes [7]): 95.23 ± 6.54 U/mg prot | level of H2O2 after stimulation with alcohol (HHL-5 hepatocytes [8]): 43860 ± 3570 µM | level of SOD after administration of alcohol (HHL-5 hepatocytes [9]): 31.28 ± 4.53 U/mg prot | level of GSH-Px after administration of alcohol (HHL-5 hepatocytes [10]): 49.26 ± 4.82 U/mg prot | level of CAT after administration of alcohol (HHL-5 hepatocytes [11]): 24.87 ± 3.28 U/mg prot

CC(C)C[C@H](NC(=O)[C@@H]1CCCN1C(=O)[C@@H](N)CC(C)C)C(=O)N1CCC[C@H]1C(=O)N[C@@H](Cc1ccccc1)C(=O)N1CCC[C@H]1C(=O)O [LPLPFP, Leu-Pro-Leu-Pro-Phe-Pro] (H-LPLPFP-OH)
resistance to pepsin-trypsin simulated GI digestion (pepsin and trypsin): strong resistance
